Results on 1 molecule are retold here after PubChem BioAssay (NCI).

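Method: 48-hour compound exposure of cells in 96-well plates, five concentrations, linear interpolation of endpoints. GI50: concentration for 50% inhibition of growth. At the TGI there is no net growth.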

Some test systems named below: SW-620 colon; K-562 leukemia; OVCAR-8 ovarian; UACC-62 melanoma; UACC-257 melanoma; NCI/ADR-RES ovarian; M14 melanoma; SNB-75 CNS; HOP-92 NSCLC; T-47D breast.
Assay in all cases: growth of human tumour cells (NCI), 48 h

On to `C=C(C)[C@@H]1CC[C@]2(C(=O)OC)CC[C@]3(C)[C@H](CC[C@@H]4[C@@]5(C)CC/C(=N\OCCC(=NCCC#N)NOCCC#N)C(C)(C)[C@@H]5CC[C@]43C)[C@@H]12`, for which the GI50 in the test with SW-620 colon was 4.45 µM; with K-562 leukemia, 2.23 µM; in the test with OVCAR-8 ovarian, 9.66 µM; in the test with UACC-62 melanoma, 2.32 µM; with UACC-257 melanoma, 5.35 µM; with NCI/ADR-RES ovarian it was 13.5 µM. The GI50 with M14 melanoma was 11.9 µM; in the test with SNB-75 CNS, 31.2 µM; in the test with HOP-92 NSCLC, 6.9 µM; in the test with T-47D breast, 3.47 µM. Further, the TGI in the test on SW-620 colon is over 50 µM; in the test with K-562 leukemia it was over 50 µM; in the test with OVCAR-8 ovarian, over 50 µM; with UACC-62 melanoma, 12.6 µM; in the test with UACC-257 melanoma, over 50 µM; with NCI/ADR-RES ovarian it was over 50 µM. Further, the TGI with M14 melanoma was over 50 µM; in the test on SNB-75 CNS, over 50 µM; with HOP-92 NSCLC, 35 µM; with T-47D breast, over 50 µM.
